Laboratory results taken from patent US10738028B2, “Spiro three-membered ring, spiro five-membered ring peptide deformylase inhibitor and use thereof in antibacteria and anti-tumor” (priority 2016, dated 2020).

Assays:
Type in all cases: cell-based
[1] = system: Escherichia coli (including ESBLs, non-ESBLs); test: MIC, two-fold agar dilution (CLSI), clinical isolates; settings: for Anti-bacterial activity (MIC), strain ECO+ 15-1: clinical isolate ECO+ 15-1; for Anti-bacterial activity (MIC), strain ECO+ 15-2: clinical isolate ECO+ 15-2; for Anti-bacterial activity (MIC), strain ECO+ 15-3: clinical isolate ECO+ 15-3; for Anti-bacterial activity (MIC), strain ECO+ 15-4: clinical isolate ECO+ 15-4; for Anti-bacterial activity (MIC), strain ECO− 15-1: clinical isolate ECO− 15-1; for Anti-bacterial activity (MIC), strain ECO− 15-2: clinical isolate ECO− 15-2; for Anti-bacterial activity (MIC), strain ECO− 15-3: clinical isolate ECO− 15-3; for Anti-bacterial activity (MIC), strain ECO− 15-4: clinical isolate ECO− 15-4
Method in brief: (§1)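 Following the American Clinical and Laboratory Standards Institute procedure, agar two-fold dilution served to determine minimum inhibitory concentrations.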

[2] = system: Enterococcus faecium (EFM); test: as above; settings: for Anti-bacterial activity (MIC), strain EFM 15-1: clinical isolate EFM 15-1; for Anti-bacterial activity (MIC), strain EFM 15-2: clinical isolate EFM 15-2; for Anti-bacterial activity (MIC), strain EFM 15-3: clinical isolate EFM 15-3; for Anti-bacterial activity (MIC), strain EFM 15-4: clinical isolate EFM 15-4; for Anti-bacterial activity (MIC), strain EFM 15-5: clinical isolate EFM 15-5; for Anti-bacterial activity (MIC), strain EFM 15-6: clinical isolate EFM 15-6
Method in brief: as §1

[3] = system: methicillin-resistant Staphylococcus aureus (MRSA); test: as above; settings: for Anti-bacterial activity (MIC), strain MRSA 15-1: clinical isolate MRSA 15-1; for Anti-bacterial activity (MIC), strain MRSA 15-2: clinical isolate MRSA 15-2; for Anti-bacterial activity (MIC), strain MRSA 15-3: clinical isolate MRSA 15-3; for Anti-bacterial activity (MIC), strain MRSA 15-4: clinical isolate MRSA 15-4
Method in brief: as §1

[4] = system: Moraxella catarrhalis (BCA); test: as above; settings: for Anti-bacterial activity (MIC), strain BCA 14-1: clinical isolate BCA 14-1; for Anti-bacterial activity (MIC), strain BCA 14-4: clinical isolate BCA 14-4; for Anti-bacterial activity (MIC), strain BCA 14-5: clinical isolate BCA 14-5; for Anti-bacterial activity (MIC), strain BCA 14-6: clinical isolate BCA 14-6; for Anti-bacterial activity (MIC), strain BCA 14-7: clinical isolate BCA 14-7; for Anti-bacterial activity (MIC), strain BCA 14-8: clinical isolate BCA 14-8; for Anti-bacterial activity (MIC), strain BCA 14-10: clinical isolate BCA 14-10
Method in brief: as §1

[5] = system: Streptococcus pneoumoniae (SPN); test: as above; settings: for Anti-bacterial activity (MIC), strain SPN 16-2: clinical isolate SPN 16-2; for Anti-bacterial activity (MIC), strain SPN 16-4: clinical isolate SPN 16-4
Method in brief: as §1

[6] = system: methicillin-resistant Staphylococcus epidermidis (MRSE); test: as above; settings: for Anti-bacterial activity (MIC), strain MRSE 15-1: clinical isolate MRSE 15-1; for Anti-bacterial activity (MIC), strain MRSE 15-2: clinical isolate MRSE 15-2; for Anti-bacterial activity (MIC), strain MRSE 15-3: clinical isolate MRSE 15-3; for Anti-bacterial activity (MIC), strain MRSE 15-7: clinical isolate MRSE 15-7
Method in brief: as §1

[7] = system: methicillin-sensitive Staphylococcus epidermidis (MSSE); test: as above; settings: for Anti-bacterial activity (MIC), strain MSSE 15-3: clinical isolate MSSE 15-3; for Anti-bacterial activity (MIC), strain MSSE 15-4: clinical isolate MSSE 15-4; for Anti-bacterial activity (MIC), strain MSSE 15-5: clinical isolate MSSE 15-5; for Anti-bacterial activity (MIC), strain MSSE 15-6: clinical isolate MSSE 15-6
Method in brief: as §1

[8] = system: methicillin-sensitive Staphylococcus aureus (MSSA); test: as above; settings: for Anti-bacterial activity (MIC), strain MSSA 15-3: clinical isolate MSSA 15-3; for Anti-bacterial activity (MIC), strain MSSA 15-4: clinical isolate MSSA 15-4; for Anti-bacterial activity (MIC), strain MSSA 15-5: clinical isolate MSSA 15-5; for Anti-bacterial activity (MIC), strain MSSA 15-6: clinical isolate MSSA 15-6
Method in brief: as §1

[9] = system: Enterococcus faecalis (EFA); test: as above; settings: for Anti-bacterial activity (MIC), strain EFA 15-1: clinical isolate EFA 15-1; for Anti-bacterial activity (MIC), strain EFA 15-2: clinical isolate EFA 15-2; for Anti-bacterial activity (MIC), strain EFA 15-3: clinical isolate EFA 15-3; for Anti-bacterial activity (MIC), strain EFA 15-4: clinical isolate EFA 15-4; for Anti-bacterial activity (MIC), strain EFA 15-5: clinical isolate EFA 15-5; for Anti-bacterial activity (MIC), strain EFA 15-6: clinical isolate EFA 15-6; for Anti-bacterial activity (MIC), strain EFA 15-9: clinical isolate EFA 15-9
Method in brief: as §1

[10] = system: HCT-116 colorectal cancer cell line; test: CCK-8 proliferation inhibition; settings: Homo sapiens, HCT-116, 72 h, concentration of 30 μM; 72 hours; CCK-8; read-out: HCT116 inhibition rate/%
Method in brief: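 Growth inhibition is read by CCK-8 (1:10 dilution) after 72 h of compound exposure. HCT-116 cells grow in McCoy's 5A containing 10% newborn bovine serum at 2000 cells/well, with 1‰ DMSO as vehicle control.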

CCCC[C@H](CC(=O)NO)C(=O)N1CC2(CC2)C[C@@H]1c1nc2ccccc2[nH]1 [Example 59, (R)-3-((R)-6-(1H-benzimidazol-2-yl)-5-azaspiro[2.4]heptane-5-carbonyl)-N-hydroxyheptanamide]
> 32 µg/mL: Anti-bacterial activity (MIC), strain ECO+ 15-1 [1] | Anti-bacterial activity (MIC), strain ECO+ 15-2 [1] | Anti-bacterial activity (MIC), strain ECO+ 15-3 [1] | Anti-bacterial activity (MIC), strain ECO+ 15-4 [1] | Anti-bacterial activity (MIC), strain ECO− 15-1 [1] | Anti-bacterial activity (MIC), strain ECO− 15-2 [1] | Anti-bacterial activity (MIC), strain ECO− 15-3 [1] | Anti-bacterial activity (MIC), strain ECO− 15-4 [1] | Anti-bacterial activity (MIC), strain EFM 15-1 [2] | Anti-bacterial activity (MIC), strain EFM 15-2 [2] | Anti-bacterial activity (MIC), strain EFM 15-3 [2] | Anti-bacterial activity (MIC), strain EFM 15-4 [2] | Anti-bacterial activity (MIC), strain MRSA 15-1 [3] | Anti-bacterial activity (MIC), strain MRSA 15-2 [3] | Anti-bacterial activity (MIC), strain MRSA 15-3 [3] | Anti-bacterial activity (MIC), strain MRSA 15-4 [3] | Anti-bacterial activity (MIC), strain BCA 14-1 [4] | Anti-bacterial activity (MIC), strain BCA 14-4 [4] | Anti-bacterial activity (MIC), strain BCA 14-6 [4] | Anti-bacterial activity (MIC), strain BCA 14-7 [4] | Anti-bacterial activity (MIC), strain BCA 14-8 [4] | Anti-bacterial activity (MIC), strain BCA 14-10 [4] | Anti-bacterial activity (MIC), strain MRSE 15-1 [6] | Anti-bacterial activity (MIC), strain MRSE 15-2 [6] | Anti-bacterial activity (MIC), strain MRSE 15-3 [6] | Anti-bacterial activity (MIC), strain MRSE 15-7 [6] | Anti-bacterial activity (MIC), strain MSSE 15-3 [7] | Anti-bacterial activity (MIC), strain MSSE 15-4 [7] | Anti-bacterial activity (MIC), strain MSSE 15-5 [7] | Anti-bacterial activity (MIC), strain MSSE 15-6 [7] | Anti-bacterial activity (MIC), strain MSSA 15-3 [8] | Anti-bacterial activity (MIC), strain MSSA 15-4 [8] | Anti-bacterial activity (MIC), strain MSSA 15-5 [8] | Anti-bacterial activity (MIC), strain MSSA 15-6 [8] | Anti-bacterial activity (MIC), strain EFA 15-1 [9] | Anti-bacterial activity (MIC), strain EFA 15-2 [9] | Anti-bacterial activity (MIC), strain EFA 15-3 [9] | Anti-bacterial activity (MIC), strain EFA 15-4 [9] | Anti-bacterial activity (MIC), strain EFA 15-5 [9] | Anti-bacterial activity (MIC), strain EFA 15-6 [9] | Anti-bacterial activity (MIC), strain EFA 15-9 [9]
16 µg/mL: Anti-bacterial activity (MIC), strain EFM 15-5 [2] | Anti-bacterial activity (MIC), strain EFM 15-6 [2] | Anti-bacterial activity (MIC), strain BCA 14-5 [4]
12%: inhibition at 30 µM [10]
8 µg/mL: Anti-bacterial activity (MIC), strain SPN 16-2 [5] | Anti-bacterial activity (MIC), strain SPN 16-4 [5]

CCCC[C@H](CC(=O)NO)C(=O)N1CC2(CC2)C[C@H]1c1nc2ccccc2n1CCN(C)C [Example 60, (R)-3-((S)-6-(1-(2-(dimethylamino)ethyl)-1H-benzimidazol-2-yl)-5-azaspiro[2.4]heptane-5-carbonyl)-N-hydroxyheptanamide]
8 µg/mL: Anti-bacterial activity (MIC), strain EFM 15-5 [2]
> 32 µg/mL: Anti-bacterial activity (MIC), strain ECO+ 15-1 [1] | Anti-bacterial activity (MIC), strain ECO+ 15-2 [1] | Anti-bacterial activity (MIC), strain ECO+ 15-3 [1] | Anti-bacterial activity (MIC), strain ECO+ 15-4 [1] | Anti-bacterial activity (MIC), strain ECO− 15-1 [1] | Anti-bacterial activity (MIC), strain ECO− 15-2 [1] | Anti-bacterial activity (MIC), strain ECO− 15-3 [1] | Anti-bacterial activity (MIC), strain ECO− 15-4 [1] | Anti-bacterial activity (MIC), strain EFM 15-1 [2] | Anti-bacterial activity (MIC), strain EFM 15-2 [2] | Anti-bacterial activity (MIC), strain EFM 15-3 [2] | Anti-bacterial activity (MIC), strain EFM 15-4 [2] | Anti-bacterial activity (MIC), strain MRSA 15-1 [3] | Anti-bacterial activity (MIC), strain MRSA 15-2 [3] | Anti-bacterial activity (MIC), strain MRSA 15-3 [3] | Anti-bacterial activity (MIC), strain MRSA 15-4 [3] | Anti-bacterial activity (MIC), strain BCA 14-1 [4] | Anti-bacterial activity (MIC), strain BCA 14-4 [4] | Anti-bacterial activity (MIC), strain BCA 14-5 [4] | Anti-bacterial activity (MIC), strain BCA 14-6 [4] | Anti-bacterial activity (MIC), strain BCA 14-7 [4] | Anti-bacterial activity (MIC), strain BCA 14-8 [4] | Anti-bacterial activity (MIC), strain BCA 14-10 [4] | Anti-bacterial activity (MIC), strain MRSE 15-1 [6] | Anti-bacterial activity (MIC), strain MRSE 15-2 [6] | Anti-bacterial activity (MIC), strain MRSE 15-3 [6] | Anti-bacterial activity (MIC), strain MRSE 15-7 [6] | Anti-bacterial activity (MIC), strain MSSE 15-3 [7] | Anti-bacterial activity (MIC), strain MSSE 15-4 [7] | Anti-bacterial activity (MIC), strain MSSE 15-5 [7] | Anti-bacterial activity (MIC), strain MSSE 15-6 [7] | Anti-bacterial activity (MIC), strain MSSA 15-3 [8] | Anti-bacterial activity (MIC), strain MSSA 15-4 [8] | Anti-bacterial activity (MIC), strain MSSA 15-5 [8] | Anti-bacterial activity (MIC), strain MSSA 15-6 [8] | Anti-bacterial activity (MIC), strain EFA 15-1 [9] | Anti-bacterial activity (MIC), strain EFA 15-2 [9] | Anti-bacterial activity (MIC), strain EFA 15-3 [9] | Anti-bacterial activity (MIC), strain EFA 15-4 [9] | Anti-bacterial activity (MIC), strain EFA 15-5 [9] | Anti-bacterial activity (MIC), strain EFA 15-6 [9] | Anti-bacterial activity (MIC), strain EFA 15-9 [9]
-2%: inhibition at 30 µM [10]
1 µg/mL: Anti-bacterial activity (MIC), strain SPN 16-2 [5] | Anti-bacterial activity (MIC), strain SPN 16-4 [5]
32 µg/mL: Anti-bacterial activity (MIC), strain EFM 15-6 [2]
